Laboratory results as given in article PMC7367283, “A PIP2 substitute mediates voltage sensor-pore coupling in KCNQ activation” (Communications Biology, 2020).

Target: hERG (Homo sapiens, UniProt Q12809)
Test: Two-electrode voltage clamp of hERG in Xenopus oocytes
Assay type: cell-based
Conditions: 10 µM CP1
Excerpt: Since CP1 has a similar effect to PIP2 in mediating VSD-pore coupling in KCNQ channels, we tested if CP1 has effects on other ion channels that are also sensitive to PIP2 or are voltage activated and share general structural features of the VSD and the pore with KCNQ. […] On the other hand, NaV1.5 and KV4.2 are voltage-gated ion channels.
Fig. 6 Effects of CP1 on other ion channels expressed in Xenopus oocytes. a Currents of Kir1.1, CaV1.2, NaV1.5, hERG, and KV4.2 before and after application of 10 µM CP1, respectively. The voltages for holding, test, and returning pulses were Kir1.1, 0 mV, −100 to +60 mV, 0; CaV1.2, −100 mV, −100 to +60, −100 mV; NaV1.5, −100, −120 to +40 mV, −120 mV; […]; KV4.2, −80 mV, −100 mV to +80 mV, −40 mV; HCN4, −30 mV, −30 to −140 mV, −120 mV. b Current–voltage relations of Kir1.1 channel in the absence or presence of 10 µM CP1 (n = 7). c–g G–V relations of indicated channels with and without 10 µM CP1. The ΔV1/2 of G–V relations (mV) are CaV1.2, 3.38 ± 0.71 mV (c); NaV1.5, −2.26 ± 0.95 mV (d); hERG, 6.85 ± 1.81 mV (e); KV 4.2, −2.26 ± 2.88 mV (f); HCN4, 17.13 ± 1.59 mV (g).
Complementary DNA (cDNA) encoding human KCNQ1 (UniProtKB/Swiss‐Prot under accession no. P51787), KCNQ2 (O43526), KCNQ3 (O43525), KCNE1 (P15382), Kir1.1 (P48048), hERG (Q12809), KV4.2 (Q63881), NaV1.5 (Q14524), NaV β1 (Q07699), CaV1.2 (Q13936), CaV β1a (Q02641), CaV α2/δ1 (P54289), and HCN4 (Q9Y3Q4) were subcloned into oocyte expression vectors, respectively. Site-directed mutations of the KCNQ1 channel were all produced by overlap extension polymerase chain reaction (PCR) with high-fidelity Pfu polymerase (Stratagene, CA). The presence of the desired mutation was verified by sequencing the PCR-amplified regions. All the primer sequences used in this study are available in Supplementary Table 1. The complementary RNA (cRNA) of all these channels and mutations was transcribed in vitro with the T3, T7, or SP6 polymerase mMessage mMachine kit (Invitrogen, Thermo Fisher Scientific, MO).
The whole-oocyte ionic currents were recorded with a GeneClamp 500B amplifier (Axon Instruments, CA) or iTEV90 amplifier (HEKA, Germany) and then sampled at 1 kHz and low-pass-filtered at 2 kHz. The Patchmaster software (HEKA, Germany) was used to acquire data. The Kir1.1 current was recorded with a high K^+ bath solution containing (in mM) 96 KCl, 4 NaCl, 1 CaCl2, 2 MgCl2, and 10 HEPES, pH 7.3–7.4. The HCN4 current was recorded in ND66 solution containing (in mM) 66 NaCl, 32 KCl, 1.8 CaCl2, 1 MgCl2, and 5 HEPES, pH 7.6. All the other potassium channels were recorded in ND96 solution. The currents of CaV1.2 channel were recorded in 40 mM Ba^2+ bath solution containing (in mM) 40 Ba(OH)2, 50 TEA-OH, 2 KOH, and 5 HEPES, adjusted to pH 7.4 with methanesulfonic acid. CP1 (DISODIUM 5-BROMO-2-[9-CHLORO-3-(SULFONATOOXY) NAPHTHO [1,2-B] THIEN-2-YL]-1H-INDOL-3-YL SULFATE, Sigma-Aldrich, MO) and Chromanol 293B (Sigma-Aldrich, MO) were dissolved in bath solutions. All the chemicals were purchased from Sigma-Aldrich. To measure the I–V relations of the Kir1.1 channel, the test voltage was set from −100 to +60 mV for 1 s with 20-mV increments. The test pulses were stepped from a holding potential of 0 mV and then stepped back to 0 mV. The HCN4 currents were recorded by a test pulse between −30 and −140 mV in 10-mV step from a holding potential of −30 mV. For all the other potassium channels and CaV1.2 channel, the holding potential was −80 or −100 mV, and the test pulse was applied with 10-mV increment, which was followed with a repolarization pulse at −40 mV before returning to the holding potential. The durations of test and the repolarization pulse vary for different channels to allow the activation and deactivation of the channel to reach their steady states.

hERG, sequence (Q12809 whole entry): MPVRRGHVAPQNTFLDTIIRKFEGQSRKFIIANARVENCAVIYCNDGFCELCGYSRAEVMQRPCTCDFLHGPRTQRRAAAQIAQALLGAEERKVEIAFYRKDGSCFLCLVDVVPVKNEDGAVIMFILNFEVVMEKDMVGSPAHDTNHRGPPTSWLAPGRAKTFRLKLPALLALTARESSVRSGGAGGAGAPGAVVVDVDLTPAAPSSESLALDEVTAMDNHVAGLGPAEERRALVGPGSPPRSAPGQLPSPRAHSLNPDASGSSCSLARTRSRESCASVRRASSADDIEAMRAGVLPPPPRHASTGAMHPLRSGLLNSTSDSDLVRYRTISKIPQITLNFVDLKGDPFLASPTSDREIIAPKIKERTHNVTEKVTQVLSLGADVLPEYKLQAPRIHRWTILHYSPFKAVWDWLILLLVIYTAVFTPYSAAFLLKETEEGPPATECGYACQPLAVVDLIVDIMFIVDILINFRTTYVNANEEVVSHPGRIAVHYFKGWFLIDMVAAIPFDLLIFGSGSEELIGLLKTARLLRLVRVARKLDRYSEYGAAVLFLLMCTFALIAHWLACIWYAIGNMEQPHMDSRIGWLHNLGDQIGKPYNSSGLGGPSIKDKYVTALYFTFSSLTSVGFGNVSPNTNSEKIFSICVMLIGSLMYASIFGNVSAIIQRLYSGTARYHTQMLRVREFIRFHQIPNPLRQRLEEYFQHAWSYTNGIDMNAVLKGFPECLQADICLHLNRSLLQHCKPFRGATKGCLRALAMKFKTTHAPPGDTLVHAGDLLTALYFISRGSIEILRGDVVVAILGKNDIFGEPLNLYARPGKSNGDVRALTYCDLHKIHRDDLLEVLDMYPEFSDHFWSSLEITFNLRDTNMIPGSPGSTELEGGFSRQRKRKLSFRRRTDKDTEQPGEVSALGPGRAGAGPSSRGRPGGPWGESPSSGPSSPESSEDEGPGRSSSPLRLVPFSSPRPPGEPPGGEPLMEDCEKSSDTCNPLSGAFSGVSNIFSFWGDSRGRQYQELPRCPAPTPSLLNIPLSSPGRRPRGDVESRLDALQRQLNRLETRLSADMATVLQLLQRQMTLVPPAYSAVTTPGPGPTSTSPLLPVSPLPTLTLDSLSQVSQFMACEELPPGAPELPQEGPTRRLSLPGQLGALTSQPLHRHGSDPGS

## O=S(=O)([O-])Oc1c(-c2sc3c(ccc4cccc(Cl)c43)c2OS(=O)(=O)[O-])[nH]c2ccc(Br)cc12.[Na+].[Na+] [CP1, DISODIUM 5-BROMO-2-[9-CHLORO-3-(SULFONATOOXY) NAPHTHO [1,2-B] THIEN-2-YL]-1H-INDOL-3-YL SULFATE]
  ΔV1/2 of G–V relations: 6.85 ± 1.81 mV
Voltage 0 mV
  G/Gmax Mean (Fig. 6e): 0.8601
Voltage 10 mV
  G/Gmax Mean (Fig. 6e): 0.9576
Voltage 20 mV
  G/Gmax Mean (Fig. 6e): 1.0000
Voltage 30 mV
  G/Gmax Mean (Fig. 6e): 0.9916
Voltage 40 mV
  G/Gmax Mean (Fig. 6e): 0.9932
Voltage 50 mV
  G/Gmax Mean (Fig. 6e): 0.9886
Voltage 60 mV
  G/Gmax Mean (Fig. 6e): 0.9837
Voltage -10 mV
  G/Gmax Mean (Fig. 6e): 0.6448
Voltage -20 mV
  G/Gmax Mean (Fig. 6e): 0.3564
Voltage -30 mV
  G/Gmax Mean (Fig. 6e): 0.1368
Voltage -40 mV
  G/Gmax Mean (Fig. 6e): 0.0404
Voltage -50 mV
  G/Gmax Mean (Fig. 6e): 0.0144
Voltage -60 mV
  G/Gmax Mean (Fig. 6e): 0.0098
Voltage -70 mV
  G/Gmax Mean (Fig. 6e): 0.0091
Voltage -80 mV
  G/Gmax Mean (Fig. 6e): 0.0089
Voltage -90 mV
  G/Gmax Mean (Fig. 6e): 0.0084
Voltage -100 mV
  G/Gmax Mean (Fig. 6e): 0.0080
Voltage -110 mV
  G/Gmax Mean (Fig. 6e): 0.0069
Voltage -120 mV
  G/Gmax Mean (Fig. 6e): 0.0065
